# Reference: patent US8329645B2, “Polymyxin derivatives and uses thereof” (priority 2008, dated 2012)
# Where a SMILES comes first, the peptide text is derived from it. Bridges are numbered along the chain shown (N, C = ends). [ ]: non-standard residue; d: D form. The star is where a group is joined. Decanoyl = CCCCCCCCCC(=O)*; Octanoyl = CCCCCCCC(=O)*; Dab = NCC[C@H](N)C(=O)O; Abu = CC[C@H](N)C(=O)O
# How the values were obtained:
# [1] = tested on: P. aeruginosa F58; conditions: F58
# Protocol: (§1) Polymyxin B sulfate (Sigma-Aldrich, St. Louis, Mo., USA) was used as a control. […] The bacterial test strains originated from ATCC (10 strains), CCUG (11 strains), and NCTC (3 strains). Fourteen (14) strains (the F-strains) were purchased from Mobidiag Ltd., Helsinki, Finland.
# (§2) The inocula were prepared by adjusting the bacterial suspensions to a density equivalent to OD546 nm˜0.3 (˜10^8 CFU/ml˜0.5 McFarland) the yeast suspension to a density equivalent to OD546 nm˜0.75 (˜2×10^7 CFU/ml)._The suspensions were diluted to 10^7 CFU/ml. The plates were inoculated by using a Denley Multipoint Inoculator, 1 μl per spot corresponding to approx. 10^4 CFU/spot. Plates were incubated for 16-20 hours at 35° C.
# [2] = tested on: K. pneumoniae CCUG 45421; conditions: CCUG 45421
# Protocol: as §1, §2
# [3] = tested on: E. coli ATCC 25922; conditions: ATCC 25922
# Protocol: as §1, §2
# [4] = tested on: K. pneumoniae F136; conditions: F136
# Protocol: as §1, §2
# [5] = tested on: E. cloacae F231; conditions: F231
# Protocol: as §1, §2
# [6] = tested on: E. coli F8; conditions: F8
# Protocol: as §1, §2
# [7] = tested on: E. coli NCTC 13351; conditions: NCTC 13351
# Protocol: as §1, §2
# [8] = tested on: E. coli NCTC 13352; conditions: NCTC 13352
# Protocol: as §1, §2
# [9] = tested on: E. coli NCTC 13353; conditions: NCTC 13353
# Protocol: as §1, §2
# [10] = tested on: E. coli IH3080; conditions: IH3080
# Protocol: as §1, §2
# [11] = tested on: P. aeruginosa CCUG 51971
# Protocol: as §1, §2
# [12] = tested on: S. marcescens ATCC 8100; conditions: ATCC 8100
# Protocol: as §1, §2
# [13] = tested on: K. pneumoniae F145; conditions: F145
# Protocol: as §1, §2
# [14] = tested on: K. oxytoca ATCC 13182; conditions: ATCC 13182
# Protocol: as §1, §2
# [15] = tested on: E. coli CCUG 41432; conditions: CCUG 41432
# Protocol: as §1, §2
# [16] = tested on: E. coli CCUG 41424; conditions: CCUG 41424
# Protocol: as §1, §2
# [17] = tested on: S. maltophilia ATCC 17444; conditions: ATCC 17444
# Protocol: as §1, §2
# [18] = tested on: E. coli F10; conditions: F10
# Protocol: as §1, §2
# [19] = tested on: E. coli F9; conditions: F9
# Protocol: as §1, §2
# [20] = tested on: E. coli CCUG 41425; conditions: CCUG 41425
# Protocol: as §1, §2
# [21] = tested on: A. baumannii F263; conditions: F263
# Protocol: as §1, §2
# [22] = tested on: S. aureus ATCC 25923; conditions: ATCC 25923
# Protocol: as §1, §2
# [23] = tested on: E. cloacae F232; conditions: F232
# Protocol: as §1, §2
# [24] = tested on: C. freundii ATCC 8090; conditions: ATCC 8090
# Protocol: as §1, §2
# [25] = tested on: E. coli CCUG 41429; conditions: CCUG 41429
# Protocol: as §1, §2
# [26] = tested on: E. cloacae F230; conditions: F230
# Protocol: as §1, §2
# [27] = tested on: K. pneumoniae ATCC 13883; conditions: ATCC 13883
# Protocol: as §1, §2
# [28] = tested on: A. baumannii F264; conditions: F264
# Protocol: as §1, §2
# [29] = tested on: E. coli F19; conditions: F19
# Protocol: as §1, §2
# [30] = tested on: P. aeruginosa ATCC 27853; conditions: ATCC 27853
# Protocol: as §1, §2
# [31] = tested on: K. oxytoca CCUG 51683; conditions: CCUG 51683
# Protocol: as §1, §2
# [32] = tested on: E. coli CCUG 41422
# Protocol: as §1, §2
# [33] = tested on: E. coli CCUG 41427; conditions: CCUG 41427
# Protocol: as §1, §2
# [34] = tested on: C. albicans ATCC 28366; conditions: ATCC 28366
# Protocol: as §1, §2
# [35] = tested on: E. cloacae CCUG 52947; conditions: CCUG 52947
# Protocol: as §1, §2
# [36] = tested on: A. baumannii ATCC 19606; conditions: ATCC 19606
# Protocol: as §1, §2
# [37] = tested on: E. cloacae ATCC 23355; conditions: ATCC 23355
# Protocol: as §1, §2
# [38] = tested on: E. coli ATCC25922; conditions: ATCC 25922
# How it was run: (§3)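 Strips carrying an antibiotic concentration gradient were placed on inoculated plates following the supplier's directions, and the MIC was then recorded.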
# [39] = tested on: K. pneumoniae ATCC13883; conditions: ATCC 13883
# How it was run: as §3
Structure (SMILES),MIC [1] [µg/mL],MIC [2] [µg/mL],MIC [3] [µg/mL],MIC [4] [µg/mL],MIC [5] [µg/mL],MIC [6] [µg/mL],MIC [7] [µg/mL],MIC [8] [µg/mL],MIC [9] [µg/mL],MIC [10] [µg/mL],MIC [11] [µg/mL],MIC [12] [µg/mL],MIC [13] [µg/mL],MIC [14] [µg/mL],MIC [15] [µg/mL],MIC [16] [µg/mL],MIC [17] [µg/mL],MIC [18] [µg/mL],MIC [19] [µg/mL],MIC [20] [µg/mL],further results
"CCCCCCCCCC(=O)N[C@H](C(=O)N[C@H](CO)C(=O)N[C@H]1CCNC(=O)[C@H]([C@@H](C)O)NC(=O)[C@H](CCN)NC(=O)[C@H](CCN)NC(=O)[C@H](CC(C)C)NC(=O)[C@@H](Cc2ccccc2)NC(=O)[C@H](CCN)NC1=O)[C@@H](C)O [NAB 740, DA-Thr-DSer-cy[Dab-Dab-DPhe-Leu-Dab-Dab-Thr-]] (Decanoyl-T[dS][Dab][Dab][dF]L[Dab][Dab]T; lactam 3-C)",4,4,2,2,2,2,1,1,2,2,8,>32,2,2,2,2,8,2,2,2,MIC [21]: 2 µg/mL; MIC [22]: >32 µg/mL; MIC [23]: 2 µg/mL; MIC [24]: 2 µg/mL; MIC [25]: 1 µg/mL; MIC [26]: 2 µg/mL; MIC [27]: 8 µg/mL; MIC [28]: 2 µg/mL; MIC [29]: 1 µg/mL; MIC [30]: 4 µg/mL; MIC [31]: 2 µg/mL; MIC [32]: 2 µg/mL; MIC [33]: 1 µg/mL; MIC [34]: >32 µg/mL; MIC [35]: 2 µg/mL; MIC [36]: 4 µg/mL; MIC [37]: 2 µg/mL
"CCCCCCCC(=O)N[C@H](C(=O)N[C@@H](CC)C(=O)N[C@H]1CCNC(=O)[C@H]([C@@H](C)O)NC(=O)[C@H](CCN)NC(=O)[C@H](CCN)NC(=O)[C@H](CC(C)C)NC(=O)[C@@H](Cc2ccccc2)NC(=O)[C@H](CCN)NC1=O)[C@@H](C)O [NAB 7061, OA-Thr-Abu-cy[Dab-Dab-DPhe-Leu-Dab-Dab-Thr-]] (Octanoyl-T[Abu][Dab][Dab][dF]L[Dab][Dab]T; lactam 3-C)",>32,>32,>32,>32,32,>32,>32,32,>32,>32,>32,>32,>32,32,>32,32,>32,>32,>32,>32,MIC of NAB7061 [38]: 16 µg/mL; MIC of NAB7061 [39]: > 16 µg/mL; MIC [21]: >32 µg/mL; MIC [22]: >32 µg/mL; MIC [23]: >32 µg/mL; MIC [24]: 16 µg/mL; MIC [25]: 16 µg/mL; MIC [26]: >32 µg/mL; MIC [27]: >32 µg/mL; MIC [28]: >32 µg/mL; MIC [29]: 32 µg/mL; MIC [30]: >32 µg/mL; MIC [31]: 32 µg/mL; MIC [32]: >32 µg/mL; MIC [33]: >32 µg/mL; MIC [34]: >32 µg/mL; MIC [35]: >32 µg/mL; MIC [36]: >32 µg/mL; MIC [37]: 32 µg/mL
